These results are taken from publication PMC11079024, “Identification of a family of species-selective complex I inhibitors as potential anthelmintics” (Nature Communications, 2024).

Data set [1] deals with L1 wild-type C. elegans. Particulars: for KCN survival assay value relative to DMSO control, Mean: mean of replicates.
Data set [2] concerns ben-1 mutant (ECA882) C. elegans. The data set is described as follows: microbe, parasite or virus in culture. Particulars: for LC50 / viability at 1 µM / viability at 2 µM / viability at 3.9 µM / viability at 15.6 µM / viability at 31.3 µM / viability at 62.5 µM / viability at 125 µM / viability at 250 µM / viability at 500 µM / viability at 1000 µM: Caenorhabditis elegans; for viability at 1 µM / viability at 2 µM / viability at 3.9 µM / viability at 15.6 µM / viability at 31.3 µM / viability at 62.5 µM / viability at 125 µM / viability at 250 µM / viability at 500 µM / viability at 1000 µM: read-out: C. elegans ben-1(e1880) development/viability; for C. elegans L1 relative development & viability (score 0-1 relative to DMSO controls): strain ECA882, deletion (ben-1); for C. elegans L1 relative development & viability: ECA882 deletion (ben-1). The gist of the method: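 L1 larvae (~2 worms/μL in M9) in liquid NGM with 2-fold concentrated E. coli HB101, compound at 1% DMSO, 6 days at 20 °C shaking 165 rpm. Well images scored as summed worm-associated pixels, normalized to DMSO controls; relative viability averaged over at least three biological replicates.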

The nature of data set [3]: in vitro. Particulars: human.
[4] abbreviates: 50 μM, KCN survival assay, hit = relative motility below 0.25.
[5] abbreviates: read-out: C. elegans (ben-1) Development & Viability Assay LC50.
Setting [6] is: read-out: C. elegans ben-1 log10 LC50 (converted).
Where [7] appears, read: HEK293 Cell Viability Assay LC50, HEK293 cells, estimated from fitted dose-response curves, mean of at least two biological replicates.
Where [8] appears, read: HEK293 cells (Flp-In-293), HEK293 viability.
Where [9] appears, read: HEK293 Cell Viability Assay LC50, HEK293 cells, estimated from fitted dose-response curves.
[10] abbreviates: 50 μM compound, hit = relative motility below 0.25 3 hours after removal of KCN.
Setting [11] is: HEK293 Cell Viability Assay LC50, 2 days exposure.

Read-outs that look alike come from different tables or passages of the source.

A word on the LC50: it is the concentration that kills 50% of the test population. As for `Brc1ccccc1OCCCCn1cnc2ccccc21` [Compound 7924576], in data set [1] (setting [4]), the “Screen "Hit"” value is recorded as “Y (hits were identified as compounds that reduced relative motility below 0.25 (75% reduction))”. The “C. elegans KCN Survival” value in data set [1] (Dose 0.39 µM) is 0.969. Besides, the “C. elegans KCN Survival” value in data set [1] (Dose 1.56 µM) is listed as 0.940. The “C. elegans KCN Survival” value in data set [1] (Dose 3.13 µM) is reported as 0.862. Further, in data set [1] (Dose 6.25 µM), the “C. elegans KCN Survival” value is reported as 0.585. Moreover, the “C. elegans KCN Survival” value in data set [1] (Dose 12.5 µM) was found to be 0.135. In addition, the “C. elegans KCN Survival” value in data set [1] (Dose 25 µM) came to 0.138. Moreover, the “C. elegans KCN Survival” value in data set [1] (Dose 50 µM) is listed as 0.159. Besides, the “C. elegans KCN Survival” value in data set [1] (Dose 100 µM) is recorded as 0.208. The LC50 in data set [2] (setting [5]) worked out at 58.6 µM. In data set [2], the viability at 1 µM was 99.9%, the viability at 2 µM came to 91.7%, the viability at 3.9 µM was 96.6% and the viability at 15.6 µM is 87.8%. For the same compound, in data set [2], the viability at 31.3 µM was 65.5%, the viability at 62.5 µM was determined as 54%, the viability at 125 µM was determined as 3.7% and the viability at 250 µM was found to be 4.7%. In data set [2], the viability at 500 µM is 2.1% and the viability at 1000 µM came to 0.7%. Further, the LC50 in data set [2] (setting [6]) is 58.6 µM. In data set [3] (setting [7]), the CC50 at 2 days was 44.3 µM. In addition, in data set [3] (setting [8]), the viability at 2 days, 3.13 µM came out at 96.3%; the viability at 2 days, 6.25 µM is 98.1%; the viability at 2 days, 25 µM is 82.8%; the viability at 2 days, 50 µM worked out at 40.2%. Also, in data set [3] (setting [8]), the viability at 2 days, 100 µM worked out at 6.9%.
On to `Cc1ccc(Cn2c(C(C)C)nc3ccccc32)cc1` [Compound 6586153], for which, in data set [1] (setting [4]), the “Screen "Hit"” value was “Y (hits were identified as compounds that reduced relative motility below 0.25 (75% reduction))”. Moreover, the LC50 in data set [2] (setting [5]) and in data set [2] (setting [6]) was 419 µM each time. Also, the CC50 at 2 days in data set [3] (setting [9]) was greater than 100 µM.
On to `Cc1nc2ccccc2n1Cc1ccc(C(C)C)cc1` [Compound 7353551], for which the “Screen "Hit"” value in data set [1] (setting [10]) is on record as “Y (hits were identified as compounds that reduced relative motility below 0.25 (75% reduction))”. The LC50 is 91.5 µM in data set [2] (setting [5]) and 91.6 µM in data set [2] (setting [6]). In addition, the CC50 at 2 days in data set [3] (setting [7]) is 46.2 µM.
Consider `CC(C)Cc1ccc(C(C)c2nc3ccccc3n2C(C)C)cc1` (stereo not shown) [STK951903], for which the “Screen "Hit"” value in data set [1] (setting [10]) is listed as “Y (hits were identified as compounds that reduced relative motility below 0.25 (75% reduction))”. Besides, the LC50 in data set [2] (setting [5]) and in data set [2] (setting [6]) was 731 µM throughout. Further, the CC50 at 2 days in data set [3] (setting [9]) is 29.2 µM.
Consider `CCc1cc(OCCn2cnc3ccccc32)ccc1Cl` [Compound 7925288], for which the “Screen "Hit"” value in data set [1] (50 μM, hit = relative motility below 0.25 3 hours after removal of KCN) is “Y (hits were identified as compounds that reduced relative motility below 0.25 (75% reduction))”. In addition, the “C. elegans KCN Survival” value in data set [1] (Dose 0.2 µM, mean of at least three biological replicates) was 1.082. Also, the “C. elegans KCN Survival” value in data set [1] (Dose 0.39 µM) came to 1.088. Besides, the “C. elegans KCN Survival” value in data set [1] (Dose 1.56 µM) was 1.105. Also, the “C. elegans KCN Survival” value in data set [1] (Dose 3.13 µM) is listed as 1.186. In addition, the “C. elegans KCN Survival” value in data set [1] (Dose 6.25 µM) amounted to 1.064. Moreover, the “C. elegans KCN Survival” value in data set [1] (Dose 12.5 µM) is listed as 0.930. The “C. elegans KCN Survival” value in data set [1] (Dose 25 µM) was found to be 0.276. Moreover, the “C. elegans KCN Survival” value in data set [1] (Dose 50 µM) stood at 0.146. Further, the “C. elegans KCN Survival” value in data set [1] (Dose 100 µM) is 0.159. In addition, the LC50 in data set [2] (setting [5]) was 55.2 µM. In data set [2], the viability at 1 µM amounted to 100%, the viability at 2 µM is 96%, the viability at 3.9 µM came out at 96.4% and the viability at 15.6 µM was found to be 94.7%. Moreover, in data set [2], the viability at 31.3 µM stood at 88%, the viability at 62.5 µM came out at 39.9%, the viability at 125 µM was 3.8% and the viability at 250 µM was 3.3%. In data set [2], the viability at 500 µM was determined as 2.9% and the viability at 1000 µM was found to be 1.8%. Further, the LC50 in data set [2] (setting [6]) was 55.2 µM. In addition, in data set [3] (setting [9]), the CC50 at 2 days was 34.1 µM. For the same compound, in data set [3] (setting [8]), the viability at 2 days, 3.13 µM worked out at 91.4%; the viability at 2 days, 6.25 µM stood at 96.8%; the viability at 2 days, 25 µM came to 81.1%; the viability at 2 days, 50 µM is 8.7%. Besides, the viability at 2 days, 100 µM in data set [3] (setting [8]) amounted to 7.1%. In data set [3] (HEK293 cells (Flp-In-293), HEK293 viability, Dose 12.5 µM), the viability at 2 days, 12.5 µM worked out at 93.6%.
In data set [1] (N2 (wild type), caenorhabditis elegans), `C=C(C)[C@H]1Cc2c(ccc3c2O[C@@H]2COc4cc(OC)c(OC)cc4[C@@H]2C3=O)O1` [Rotenone, reference compound] came in with an LC50 of 0.86 µM. Also, in data set [3], the CC50 is less than 0.39 µM. Further, the viability in data set [3] (HEK293 viability, dose 0.4 µM, Mean of replicates) was found to be 33.2%; in data set [3] (HEK293 viability, dose 0.8 µM, Mean of replicates) it was 34.5%; in data set [3] (HEK293 viability, dose 0.8 µM, individual replicate (Rep)), 37.4%; in data set [3] (HEK293 viability, dose 3.1 µM, Mean of replicates) it was 47%; in data set [3] (HEK293 viability, dose 3.1 µM, individual replicate (Rep)) it was 46.6%; in data set [3] (HEK293 viability, dose 6.3 µM, Mean of replicates), 32.5%. In addition, the viability in data set [3] (HEK293 viability, dose 6.3 µM, individual replicate (Rep)) came out at 30.9%; in data set [3] (HEK293 viability, dose 12.5 µM, Mean of replicates) it was 26.9%; in data set [3] (HEK293 viability, dose 12.5 µM, individual replicate (Rep)), 27.1%; in data set [3] (HEK293 viability, dose 25 µM, Mean of replicates), 21.4%; in data set [3] (HEK293 viability, dose 25 µM, individual replicate (Rep)), 20.1%; in data set [3] (HEK293 viability, dose 50 µM, Mean of replicates) it was 20.1%. In data set [3] (HEK293 viability, dose 50 µM, individual replicate (Rep)), this compound displayed a viability of 20.4%.
`COc1cc2c(cc1OC)C(/C=C/c1ccc(N(C)C)cc1)=NCC2` [NPD6303] yielded a CC50 at 2 days in data set [3] (setting [11]) of 33.4 µM.
In turn, `COc1cc2c(cc1OC)C(c1ccc(-c3ccc(Cl)c(Cl)c3)o1)=NCC2` [NPD3577] came in with a CC50 at 2 days in data set [3] (setting [11]) of 21.4 µM.
Still for that read-out and setting: with `COc1cc2c(cc1OC)C(C(C)c1ccc(CC(C)C)cc1)=NCC2` (stereo not shown) [NPD10504] the figure was 36.6 µM.
Turning to `COC(=O)Nc1nc2ccc(Sc3ccccc3)cc2[nH]1` [fenbendazole, reference compound], the “KCN survival assay value relative to DMSO control, Mean” value in data set [1] (dose 0.2 µM) amounted to 1.025; in data set [1] (dose 0.4 µM) it was 0.947; in data set [1] (dose 0.8 µM), 0.953; in data set [1] (dose 3.1 µM), 0.953; in data set [1] (dose 6.3 µM), 0.899; in data set [1] (dose 12.5 µM) it was 0.967. The “KCN survival assay value relative to DMSO control, Mean” value is 0.933 in data set [1] (dose 25 µM), 0.872 in data set [1] (dose 50 µM) and 0.880 in data set [1] (dose 100 µM). The “C. elegans L1 relative development & viability (score 0-1 relative to DMSO controls)” value in data set [2] (1 µM) is 1.000; in data set [2] (2 µM) it was 1.000; in data set [2] (3.9 µM), 1.000; in data set [2] (15.6 µM) it was 0.861; in data set [2] (31.3 µM), 0.962; in data set [2] (62.5 µM), 0.936. For the same compound, the “C. elegans L1 relative development & viability (score 0-1 relative to DMSO controls)” value stood at 0.785 in data set [2] (125 µM), 0.877 in data set [2] (250 µM) and 0.667 in data set [2] (500 µM). In addition, the LC50 in data set [2] (read-out: C. elegans ben-1 LC50) and in data set [2] (setting [6]) was greater than 500 µM throughout. Besides, the “C. elegans L1 relative development & viability” value is on record as 1.000 in data set [2] (1 µM, score 0-1 relative to DMSO, values >1 set to 1); 1.000 in data set [2] (2 µM, score 0-1 relative to DMSO, values >1 set to 1); 1.000 in data set [2] (3.9 µM, score 0-1 relative to DMSO, values >1 set to 1); 0.861 in data set [2] (15.6 µM, […]); 0.962 in data set [2] (31.3 µM, […]); 0.936 in data set [2] (62.5 µM, […]). The “C. elegans L1 relative development & viability” value stood at 0.785 in data set [2] (125 µM, […]); 0.877 in data set [2] (250 µM, […]); 0.667 in data set [2] (500 µM, […]).
